Tested on: 282377-053-R-J1-PDC complex spheroids, viability
Assay: Anticancer human tumor 282377-053-R-J1-PDC patient-derived colon adenocarcinoma cell line growth inhibition [GQUAD]
Settings: for IC50: curve of first compound; for viability, T/C: stronger effect = lower value
Summary of the method: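 Tumor cells were grown as complex spheroids with HUVEC endothelial cells and mesenchymal stem cells as stroma. G-quadruplex stabilizers were combined with targeted agents over half-log dilutions from near the clinical Cmax, or from 10 microM.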

[1] = second compound 0.0316 µM, first compound 0.0316 µM
[2] = second compound 0.0316 µM, first compound 0.1 µM
[3] = second compound 0.0316 µM, first compound 0.316 µM
[4] = second compound 0.0316 µM, first compound 1 µM
[5] = second compound 0.0316 µM, first compound 3.16 µM
[6] = second compound 0.0316 µM, first compound 10 µM
[7] = second compound 0.1 µM, first compound 0.0316 µM
[8] = second compound 0.1 µM, first compound 0.1 µM
[9] = second compound 0.1 µM, first compound 0.316 µM
[10] = second compound 0.1 µM, first compound 1 µM
[11] = second compound 0.1 µM, first compound 3.16 µM
[12] = second compound 0.1 µM, first compound 10 µM
[13] = second compound 0.316 µM, first compound 0.0316 µM
[14] = second compound 0.316 µM, first compound 0.1 µM
[15] = second compound 0.316 µM, first compound 0.316 µM
[16] = second compound 0.316 µM, first compound 1 µM
[17] = second compound 0.316 µM, first compound 3.16 µM
[18] = second compound 0.316 µM, first compound 10 µM
[19] = second compound 1 µM, first compound 0.0316 µM
[20] = second compound 1 µM, first compound 0.1 µM
[21] = second compound 1 µM, first compound 0.316 µM
[22] = second compound 1 µM, first compound 1 µM
[23] = second compound 1 µM, first compound 3.16 µM
[24] = second compound 1 µM, first compound 10 µM
[25] = second compound 3.16 µM, first compound 0.0316 µM
[26] = second compound 3.16 µM, first compound 0.1 µM
[27] = second compound 3.16 µM, first compound 0.316 µM
[28] = second compound 3.16 µM, first compound 1 µM
[29] = second compound 3.16 µM, first compound 3.16 µM
[30] = second compound 3.16 µM, first compound 10 µM
[31] = second compound 10 µM, first compound 0.0316 µM
[32] = second compound 10 µM, first compound 0.1 µM
[33] = second compound 10 µM, first compound 0.316 µM
[34] = second compound 10 µM, first compound 1 µM
[35] = second compound 10 µM, first compound 3.16 µM
[36] = second compound 10 µM, first compound 10 µM
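Note: spheroids exposed to compounds for 7 days before readout.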
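Throughout, for viability, T/C: percent of vehicle DMSO control viability with 100% = untreated-like growth.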

Structure (SMILES): CC1COCCN1c1cc(-c2ccnn2C)c2ccnc(-c3ccn[nH]3)c2n1 (stereo not drawn) + Cc1[nH]c2ccc(F)cc2c1-c1nc2c3cccnc3c3ncccc3c2[nH]1
- IC50 (second compound 0.0316 µM): 659 nM
- IC50 (second compound 0.1 µM): 506 nM
- IC50 (second compound 0.316 µM): 400 nM
- IC50 (second compound 1 µM): 460 nM
- IC50 (second compound 3.16 µM): 40 nM
- IC50 (second compound 10 µM): < 31.6 nM
- viability, T/C [1]: 83.8%
- viability, T/C [2]: 82.6%
- viability, T/C [3]: 73.3%
- viability, T/C [4]: 36.4%
- viability, T/C [5]: 27.5%
- viability, T/C [6]: 20.9%
- viability, T/C [7]: 79.3%
- viability, T/C [8]: 85%
- viability, T/C [9]: 56.5%
- viability, T/C [10]: 37.3%
- viability, T/C [11]: 24.2%
- viability, T/C [12]: 19.7%
- viability, T/C [13]: 103%
- viability, T/C [14]: 77.5%
- viability, T/C [15]: 49.4%
- viability, T/C [16]: 37.7%
- viability, T/C [17]: 30.5%
- viability, T/C [18]: 17.6%
- viability, T/C [19]: 87.2%
- viability, T/C [20]: 79.3%
- viability, T/C [21]: 59%
- viability, T/C [22]: 31.9%
- viability, T/C [23]: 21.5%
- viability, T/C [24]: 18.8%
- viability, T/C [25]: 52.9%
- viability, T/C [26]: 38.6%
- viability, T/C [27]: 12.8%
- viability, T/C [28]: 8.91%
- viability, T/C [29]: 4.88%
- viability, T/C [30]: 4.03%
- viability, T/C [31]: 35.6%
- viability, T/C [32]: 23.9%
- viability, T/C [33]: 9.76%
- viability, T/C [34]: 5.71%
- viability, T/C [35]: 3.51%
- viability, T/C [36]: 2.86%

Structure (SMILES): CC1COCCN1c1cc(C2(O)CC3CCC(C2)O3)c2cnn(-c3ccn[nH]3)c2n1 (stereo not drawn) + Cc1[nH]c2ccc(F)cc2c1-c1nc2c3cccnc3c3ncccc3c2[nH]1
- IC50 (second compound 0.0316 µM): 626 nM
- IC50 (second compound 0.1 µM): 509 nM
- IC50 (second compound 0.316 µM): 293 nM
- IC50 (second compound 1 µM): 248 nM
- IC50 (second compound 3.16 µM): 35 nM
- IC50 (second compound 10 µM): < 31.6 nM
- viability, T/C [1]: 81.3%
- viability, T/C [2]: 73.1%
- viability, T/C [3]: 71.7%
- viability, T/C [4]: 35%
- viability, T/C [5]: 25.7%
- viability, T/C [6]: 17.6%
- viability, T/C [7]: 88.2%
- viability, T/C [8]: 85.7%
- viability, T/C [9]: 59.6%
- viability, T/C [10]: 34.1%
- viability, T/C [11]: 25.6%
- viability, T/C [12]: 16.6%
- viability, T/C [13]: 71.5%
- viability, T/C [14]: 88.2%
- viability, T/C [15]: 47.8%
- viability, T/C [16]: 35.2%
- viability, T/C [17]: 24.7%
- viability, T/C [18]: 16.2%
- viability, T/C [19]: 71.7%
- viability, T/C [20]: 65.5%
- viability, T/C [21]: 45.4%
- viability, T/C [22]: 25.4%
- viability, T/C [23]: 16.4%
- viability, T/C [24]: 9.51%
- viability, T/C [25]: 52%
- viability, T/C [26]: 28.9%
- viability, T/C [27]: 11.3%
- viability, T/C [28]: 5.76%
- viability, T/C [29]: 3.99%
- viability, T/C [30]: 3.21%
- viability, T/C [31]: 31.2%
- viability, T/C [32]: 16.5%
- viability, T/C [33]: 8.68%
- viability, T/C [34]: 2.7%
- viability, T/C [35]: 2.23%
- viability, T/C [36]: 2.03%

Structure (SMILES): Cc1cccc(N(C)C(=O)C2C(O)CCN2c2nc(C)cc(C(F)(F)F)c2C#N)c1 (stereo not drawn) + Cc1[nH]c2ccc(F)cc2c1-c1nc2c3cccnc3c3ncccc3c2[nH]1
- IC50 (second compound 0.0316 µM): > 10000 nM
- IC50 (second compound 0.1 µM): > 10000 nM
- IC50 (second compound 0.316 µM): > 10000 nM
- IC50 (second compound 1 µM): > 10000 nM
- IC50 (second compound 3.16 µM): > 10000 nM
- IC50 (second compound 10 µM): 567 nM
- viability, T/C [1]: 89.3%
- viability, T/C [2]: 94.1%
- viability, T/C [3]: 113%
- viability, T/C [4]: 95.9%
- viability, T/C [5]: 100%
- viability, T/C [6]: 76.2%
- viability, T/C [7]: 95.7%
- viability, T/C [8]: 91.3%
- viability, T/C [9]: 83.5%
- viability, T/C [10]: 109%
- viability, T/C [11]: 82.8%
- viability, T/C [12]: 94.6%
- viability, T/C [13]: 77.2%
- viability, T/C [14]: 100%
- viability, T/C [15]: 92.1%
- viability, T/C [16]: 92.8%
- viability, T/C [17]: 93%
- viability, T/C [18]: 114%
- viability, T/C [19]: 86%
- viability, T/C [20]: 88.3%
- viability, T/C [21]: 94.6%
- viability, T/C [22]: 109%
- viability, T/C [23]: 86.2%
- viability, T/C [24]: 89.6%
- viability, T/C [25]: 78%
- viability, T/C [26]: 73%
- viability, T/C [27]: 66.8%
- viability, T/C [28]: 65.7%
- viability, T/C [29]: 75.5%
- viability, T/C [30]: 79.3%
- viability, T/C [31]: 47%
- viability, T/C [32]: 56.4%
- viability, T/C [33]: 66.4%
- viability, T/C [34]: 43.6%
- viability, T/C [35]: 36.8%
- viability, T/C [36]: 35%

Structure (SMILES): Cn1ncnc1[C@H]1c2n[nH]c(=O)c3cc(F)cc(c23)N[C@@H]1c1ccc(F)cc1 + Cc1[nH]c2ccc(F)cc2c1-c1nc2c3cccnc3c3ncccc3c2[nH]1
- IC50 (second compound 0.0316 µM): > 316 nM
- IC50 (second compound 0.1 µM): > 316 nM
- IC50 (second compound 0.316 µM): > 316 nM
- IC50 (second compound 1 µM): > 316 nM
- IC50 (second compound 3.16 µM): > 316 nM
- IC50 (second compound 10 µM): > 316 nM
- viability, T/C (second compound 0.0316 µM, first compound 0.000999 µM): 95.8%
- viability, T/C (second compound 0.0316 µM, first compound 0.00316 µM): 80.1%
- viability, T/C (second compound 0.0316 µM, first compound 0.00999 µM): 96.7%
- viability, T/C [1]: 88.1%
- viability, T/C (second compound 0.0316 µM, first compound 0.0999 µM): 109%
- viability, T/C [3]: 90.2%
- viability, T/C (second compound 0.1 µM, first compound 0.000999 µM): 91.8%
- viability, T/C (second compound 0.1 µM, first compound 0.00316 µM): 87.3%
- viability, T/C (second compound 0.1 µM, first compound 0.00999 µM): 101%
- viability, T/C [7]: 85.3%
- viability, T/C (second compound 0.1 µM, first compound 0.0999 µM): 93.2%
- viability, T/C [9]: 97.9%
- viability, T/C (second compound 0.316 µM, first compound 0.000999 µM): 95.1%
- viability, T/C (second compound 0.316 µM, first compound 0.00316 µM): 104%
- viability, T/C (second compound 0.316 µM, first compound 0.00999 µM): 81.1%
- viability, T/C [13]: 110%
- viability, T/C (second compound 0.316 µM, first compound 0.0999 µM): 90.5%
- viability, T/C [15]: 106%
- viability, T/C (second compound 1 µM, first compound 0.000999 µM): 79.3%
- viability, T/C (second compound 1 µM, first compound 0.00316 µM): 87.7%
- viability, T/C (second compound 1 µM, first compound 0.00999 µM): 80.7%
- viability, T/C [19]: 89.2%
- viability, T/C (second compound 1 µM, first compound 0.0999 µM): 111%
- viability, T/C [21]: 86%
- viability, T/C (second compound 3.16 µM, first compound 0.000999 µM): 67.7%
- viability, T/C (second compound 3.16 µM, first compound 0.00316 µM): 65.8%
- viability, T/C (second compound 3.16 µM, first compound 0.00999 µM): 71.8%
- viability, T/C [25]: 66.4%
- viability, T/C (second compound 3.16 µM, first compound 0.0999 µM): 86.8%
- viability, T/C [27]: 70.3%
- viability, T/C (second compound 10 µM, first compound 0.000999 µM): 48.9%
- viability, T/C (second compound 10 µM, first compound 0.00316 µM): 51.7%
- viability, T/C (second compound 10 µM, first compound 0.00999 µM): 57.2%
- viability, T/C [31]: 45%
- viability, T/C (second compound 10 µM, first compound 0.0999 µM): 41.1%
- viability, T/C [33]: 57.4%
